Data published in patent publication US8853258B2, “C-linked hydroxamic acid derivatives useful as antibacterial agents” (Pfizer Inc., priority 2009, dated 2014).

Tests used:
Type in all cases: cell-based
[1] = system: Pseudomonas aeruginosa UI-18: Wild-type (PA-7); assay: MIC determination (CLSI), PA-7; conditions: Pseudomonas aeruginosa UI-18 wild-type PA-7
Protocol: (§1) The in vitro antibacterial activity of compounds described in the Examples was evaluated by minimum inhibitory concentration (MIC) testing according to Clinical and Laboratory Standards Institute (CLSI, formerly NCCLS) guidelines. See: Clinical and Laboratory Standards Institute. Methods for Dilution Antimicrobial Susceptibility Tests for Bacteria that Grow Aerobically; Approved Standard-Seventh Edition. CLSI document M7-A7 [ISBN 1-56238-587-9]. Clinical and Laboratory Standards Institute, 940 West Valley Road, Suite 1400, Wayne, Pa. 19087-1898 USA, 2006; also Clinical and Laboratory Standards Institute. Performance Standards for Antimicrobial Susceptibility Testing; Eighteenth Informational Supplement. CLSI document M100-S18 [ISBN1-56238-653-0]. Clinical and Laboratory Standards Institute.
(§2) The following bacterial strains were used in these MIC determinations:
1) Pseudomonas aeruginosa UI-18: Wild-type, labeled as PA-7 in Tables 1, 2 and 3;

[2] = system: Acinetobacter baumanii/haemolyticus: Multidrug-resistant clinical isolate (AB-3167); assay: MIC determination (CLSI), AB-3167; conditions: Acinetobacter baumanii/haemolyticus multidrug-resistant clinical isolate AB-3167
Protocol: as §1, §2
2) Acinetobacter baumanii/haemolyticus: Multidrug-resistant clinical isolate labeled as AB-3167 in Tables 1, 2 and 3;

[3] = system: Klebsiella pneumoniae: Ciprofloxacin-resistant isolate, ESBL, clinical isolate (KP-3700); assay: MIC determination (CLSI), KP-3700
Protocol: as §1, §2
4) Klebsiella pneumoniae: Ciprofloxacin-resistant isolate, expresses extended-spectrum beta-lactamases (ESBL), clinical isolate, labeled as KP-3700 in Tables 1, 2, and 3.

[4] = system: Escherichia coli EC-1: VOGEL, mouse virulent; assay: MIC determination (CLSI), EC-1; conditions: Escherichia coli EC-1 VOGEL, mouse virulent
Protocol: as §1, §2
3) Escherichia coli EC-1: VOGEL, mouse virulent labeled as EC-1 in Tables 1, 2 and 3;

| Structure (SMILES) | PA-7 MIC [1] | AB-3167 MIC [2] | KP-3700 MIC [3] | EC-1 MIC [4] |
| --- | --- | --- | --- | --- |
| CC(CCc1ccc(-c2cnc(N3CCOCC3)nc2)cc1)(C(=O)NO)S(C)(=O)=O (centres unmarked) [Example 39] | ≧64 mg/L | ≧64 mg/L | 32 µg/mL | 4 µg/mL |
| CSc1ccc(-c2ccc(CCC(C)(C(=O)NO)S(C)(=O)=O)cc2)cc1 (centres unmarked) [Example 40] | 2 µg/mL | 16 µg/mL | 2 µg/mL | 0.5 µg/mL |
| COc1cccc(F)c1-c1ccc(CCC(C)(C(=O)NO)S(C)(=O)=O)cc1 (centres unmarked) [Example 41] | 8 µg/mL | ≧64 mg/L | ≧64 mg/L | 16 µg/mL |
| CC(C)c1cccc(-c2ccc(CCC(C)(C(=O)NO)S(C)(=O)=O)cc2)c1 (centres unmarked) [Example 43] | 8 µg/mL | 4 µg/mL | 16 µg/mL | 4 µg/mL |
| CC(CCc1ccc(-c2ccc(C#N)c(F)c2)cc1)(C(=O)NO)S(C)(=O)=O (centres unmarked) [Example 45] | 1 µg/mL | ≧64 mg/L | 4 µg/mL | 0.5 µg/mL |
| Cc1csc(-c2ccc(CCC(C)(C(=O)NO)S(C)(=O)=O)cc2)c1 (centres unmarked) [Example 46] | 2 µg/mL | ≧64 mg/L | 4 µg/mL | 2 µg/mL |
| COc1ccc(OC)c(-c2ccc(CCC(C)(C(=O)NO)S(C)(=O)=O)cc2)c1 (centres unmarked) [Example 48] | ≧64 mg/L | 16 µg/mL | ≧64 mg/L | 16 µg/mL |
| Cn1ccnc1-c1ccc(-c2ccc(CCC(C)(C(=O)NO)S(C)(=O)=O)cc2)cc1 (centres unmarked) [Example 92] | 32 µg/mL | ≧64 mg/L | 32 µg/mL | 16 µg/mL |
| CC(CCc1ccc(-c2ccc(C#N)nc2)cc1)(C(=O)NO)S(C)(=O)=O (centres unmarked) [Example 93] | 4 µg/mL | ≧64 mg/L | 32 µg/mL | 16 µg/mL |
| CSc1ccccc1-c1ccc(CCC(C)(C(=O)NO)S(C)(=O)=O)cc1 (centres unmarked) [Example 94] | 32 µg/mL | ≧64 mg/L | ≧64 mg/L | 32 µg/mL |
| CC(CCc1ccc(-c2ccoc2)cc1)(C(=O)NO)S(C)(=O)=O (centres unmarked) [Example 95] | 4 µg/mL | ≧64 mg/L | 16 µg/mL | 16 µg/mL |
| CC(CCc1ccc(-c2ccc(C(N)=O)cc2)cc1)(C(=O)NO)S(C)(=O)=O (centres unmarked) [Example 96] | 8 µg/mL | ≧64 mg/L | ≧64 mg/L | ≧64 mg/L |
| CC(CCc1ccc(-c2cc(F)cc(F)c2)cc1)(C(=O)NO)S(C)(=O)=O (centres unmarked) [Example 97] | 1 µg/mL | 8 µg/mL | 4 µg/mL | 2 µg/mL |
| Cc1ccc(-c2ccc(CCC(C)(C(=O)NO)S(C)(=O)=O)cc2)o1 (centres unmarked) [Example 99] | 8 µg/mL | ≧64 mg/L | 32 µg/mL | 16 µg/mL |
| COc1ccccc1-c1ccc(CCC(C)(C(=O)NO)S(C)(=O)=O)cc1 (centres unmarked) [Example 100] | 8 µg/mL | ≧64 mg/L | ≧64 mg/L | 32 µg/mL |
| Cn1cc(-c2ccc(CCC(C)(C(=O)NO)S(C)(=O)=O)cc2)cn1 (centres unmarked) [Example 101] | 8 µg/mL | ≧64 mg/L | 32 µg/mL | 32 µg/mL |

| Structure (SMILES) | PA-7 MIC [1] | AB-3167 MIC [2] | KP-3700 MIC [3] | EC-1 MIC [4] |
| --- | --- | --- | --- | --- |
| CC(C)c1ccc(-c2ccc(CCC(C)(C(=O)NO)S(C)(=O)=O)cc2)cc1 (centres unmarked) [Example 102] | 4 µg/mL | 4 µg/mL | 8 µg/mL | 2 µg/mL |
| CC(CCc1ccc(-c2ccco2)cc1)(C(=O)NO)S(C)(=O)=O (centres unmarked) [Example 103] | 4 µg/mL | 32 µg/mL | 16 µg/mL | 8 µg/mL |
| CC(CCc1ccc(-c2ccccc2C#N)cc1)(C(=O)NO)S(C)(=O)=O (centres unmarked) [Example 105] | 16 µg/mL | ≧64 mg/L | 32 µg/mL | 8 µg/mL |
| CC(CCc1ccc(-c2ccc(CC#N)cc2)cc1)(C(=O)NO)S(C)(=O)=O (centres unmarked) [Example 106] | 1 µg/mL | ≧64 mg/L | 8 µg/mL | 2 µg/mL |
| C[C@@](CCc1ccc(-c2ccc(F)cc2)cc1)(C(=O)NO)S(C)(=O)=O [Example 110] | 0.25 µg/mL | 8 µg/mL | 4 µg/mL | 2 µg/mL |
| CC(CCc1ccc(-c2ccc(CN)cc2)cc1)(C(=O)NO)S(C)(=O)=O (centres unmarked) [Example 111] | 32 µg/mL | ≧64 mg/L | ≧64 mg/L | ≧64 mg/L |
| CC(CCc1ccc(-c2ccc(CO)cc2)cc1)(C(=O)NO)S(C)(=O)=O (centres unmarked) [Example 112] | 4 µg/mL | ≧64 mg/L | ≧64 mg/L | ≧64 mg/L |
| CC(CCc1ccc(-c2ccc(CCN)cc2)cc1)(C(=O)NO)S(C)(=O)=O (centres unmarked) [Example 114] | 16 µg/mL | ≧64 mg/L | ≧64 mg/L | ≧64 mg/L |
| CC(CCc1ccc(-c2ccc(OCCN)cc2)cc1)(C(=O)NO)S(C)(=O)=O (centres unmarked) [Example 116] | 4 µg/mL | ≧64 mg/L | ≧64 mg/L | ≧64 mg/L |
| CC(CCc1ccc(-c2ccc(OCCCN)cc2)cc1)(C(=O)NO)S(C)(=O)=O (centres unmarked) [Example 117] | 8 µg/mL | ≧64 mg/L | ≧64 mg/L | ≧64 mg/L |
| CC(CCc1ccc(-c2ccc(OCCCCN)cc2)cc1)(C(=O)NO)S(C)(=O)=O (centres unmarked) [Example 118] | 16 µg/mL | ≧64 mg/L | ≧64 mg/L | 32 µg/mL |
| CC(CCc1ccc(-c2ccc(F)cc2)nc1)(C(=O)NO)S(C)(=O)=O (centres unmarked) [Example 119] | 8 µg/mL | ≧64 mg/L | ≧64 mg/L | 16 µg/mL |
| COc1ccc(-c2ccc(CCC(C)(C(=O)NO)S(C)(=O)=O)cn2)cc1 (centres unmarked) [Example 120] | 8 µg/mL | ≧64 mg/L | 16 µg/mL | 4 µg/mL |
| CSc1ccc(-c2ccc(CCC(C)(C(=O)NO)S(C)(=O)=O)cn2)cc1 (centres unmarked) [Example 121] | 4 µg/mL | ≧64 mg/L | 4 µg/mL | 1 µg/mL |
| CC(CCc1ccc(-c2ccc(C#N)cc2)nc1)(C(=O)NO)S(C)(=O)=O (centres unmarked) [Example 122] | 8 µg/mL | ≧64 mg/L | ≧64 mg/L | 16 µg/mL |
| CC(CCc1ccc(-c2cc(C(F)(F)F)c(C#N)cn2)cc1)(C(=O)NO)S(C)(=O)=O (centres unmarked) [Example 124] | 8 µg/mL | ≧64 mg/L | ≧64 mg/L | 8 µg/mL |
